Our source for the IC50, inhibition and Inhibitory activity values is ChEMBL document CHEMBL1138704, “Farnesyl protein transferase inhibitors targeting the catalytic zinc for enhanced binding” (Bioorg Med Chem Lett, 2004).

Assay [1] can be described thus: Inhibition of [3H]-FPP incorporation into H-ras CVLS by farnesyltransferase.
Assay [2] has as its target T1, Protein farnesyltransferase (Homo sapiens) (UniProt P49354+P49356). As to the kind of experiment: Percent inhibition of [3H]FPP incorporation into H-ras CVLS by farnesyltransferase at 1.1 uM. It counts as protein-complex assay.
Assay [3] deals with T1, Protein farnesyltransferase (Homo sapiens). The assay is described as follows: Percent inhibition of [3H]FPP incorporation into H-ras CVLS by farnesyltransferase at 0.4 uM. It counts as protein-complex assay.
Assay [4] shares this target. The assay is described as follows: Inhibition of [3H]FPP incorporation into H-ras CVLS by farnesyltransferase. It counts as protein-complex assay.

SMILES strings stand for the structures. “And” between values parts separate entries of the source, which are not always exact repeats. Equal values may be shown once.

As for `O=C(NCCCn1ccnc1)[C@@H]1CCCCN1C1c2ncc(Br)cc2CCc2cc(Cl)cc(Br)c21` (stereo partly specified), the IC50 in assay [1] is 0.9 nM and 0.4 nM.

Regarding `NC(=O)N1CCC(CC(=O)N2CCC([C@H]3c4ncc(Br)cc4CCc4cc(Cl)cc(Br)c43)CC2)CC1` [LONAFARNIB], inhibition in assay [1] was half-maximal at 2 nM (IC50).

Regarding `O=C(NCc1ccncc1)[C@@H]1CCCCN1C1c2ccc(Cl)cc2CCc2cc(Br)cnc21` (stereo partly specified), in assay [2], the inhibition was 0% and 13%.

For `O=C(NCc1cccnc1)[C@H]1CCCCN1C1c2ccc(Cl)cc2CCc2cc(Br)cnc21` (stereo partly specified), in assay [3], the inhibition is 0.4% and 11%.

As for `O=C(NCc1ccncc1)[C@H]1CCCCN1C1c2ccc(Cl)cc2CCc2cc(Br)cnc21` (stereo partly specified), the inhibition in assay [2] was 18% and 27%.

With `O=C(NCc1cccnc1)[C@@H]1CCCCN1C1c2ccc(Cl)cc2CCc2cc(Br)cnc21` (stereo partly specified), the Inhibitory activity in assay [4] was 0.3 µM and 0.16 µM.
